The test has as its system NCYC361 and other strains. Particulars: for doubling time: YPD supplemented with 100 mg/L of iron sulfate vs YPD.

Read-outs that look alike come from different tables or passages of the source.

Procedure: Shown are the average and standard deviation of the doubling times measured for each strain in YPD and in YPD supplemented with 100 mg/L of iron sulfate. […] Data represent three biological replicates.

For `O.O.O.O.O.O.O.O=S(=O)([O-])[O-].[Fe+2]` [iron sulfate, iron (II) sulfate heptahydrate], the “growth with iron supplementation to YPD” value (NCYC361) was “partially alleviated the slow growth”. Moreover, the doubling time result reads like this: (NCYC361, p<0.0008) “faster”; (any other strain) “not significantly different”.

Values taken from patent US10443062B2, “Genes that improve tolerance to lignocellulosic toxins when overexpressed in yeast” (Wisconsin Alumni Research Foundation, priority 2016, dated 2019).
